Test results published in article PMC4537469 (Protein & Cell, 2015).

Columns and labels:
RXRα [1] = molecular target: T1, RXRα (Homo sapiens, UniProt P19793, R316E); assay: mammalian one-hybrid reporter in MCF-7 cells ([…]); format: cell-based
T1 construct: gene RXRA; Gal4-DBD-RXRα-LBD
T1 sequence (P19793 223-462 R316E limits assumed): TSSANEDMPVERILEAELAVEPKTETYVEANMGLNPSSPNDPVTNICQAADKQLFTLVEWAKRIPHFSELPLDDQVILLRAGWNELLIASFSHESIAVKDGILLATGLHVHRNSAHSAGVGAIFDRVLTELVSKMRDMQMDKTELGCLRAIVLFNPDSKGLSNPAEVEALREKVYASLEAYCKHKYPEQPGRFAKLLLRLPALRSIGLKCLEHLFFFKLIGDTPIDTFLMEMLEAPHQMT

RXRα [2] = molecular target: T2, RXRα (Homo sapiens, UniProt P19793, W305A); assay: SPR (BIAcore T200); format: binding
T2 construct: gene RXRA; RXRα-LBD
T2 sequence (P19793 223-462 W305A): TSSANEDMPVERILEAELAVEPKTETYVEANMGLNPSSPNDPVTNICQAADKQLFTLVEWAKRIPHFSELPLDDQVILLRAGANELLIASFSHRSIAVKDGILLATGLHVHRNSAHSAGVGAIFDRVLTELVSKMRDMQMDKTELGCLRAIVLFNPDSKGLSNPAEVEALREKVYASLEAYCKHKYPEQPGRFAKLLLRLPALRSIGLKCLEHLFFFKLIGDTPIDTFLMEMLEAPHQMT

RXRα [3] = molecular target: T1, RXRα; assay: mammalian one-hybrid reporter in MCF-7 cells, antagonism of CD3254 (N-6 at […]); format: cell-based
RXRα [4] = molecular target: T3, RXRα (Homo sapiens, UniProt P19793); assay: SPR (BIAcore T200); also [3H]9-cis-RA competition (IC50 […]), fluorescence binding, TR-FRET coactivator assay (IC50 […])
T3 construct: gene RXRA; His-tagged human RXRα-LBD (223–462)
T3 sequence (P19793 223-462): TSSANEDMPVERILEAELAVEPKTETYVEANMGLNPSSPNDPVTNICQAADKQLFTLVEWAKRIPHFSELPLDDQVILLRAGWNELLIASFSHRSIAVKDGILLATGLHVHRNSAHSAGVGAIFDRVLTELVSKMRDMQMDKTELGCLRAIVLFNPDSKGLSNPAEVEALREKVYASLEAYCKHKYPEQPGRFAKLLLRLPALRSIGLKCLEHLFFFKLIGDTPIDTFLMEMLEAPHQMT

[5] = molecular target: the molecule itself; assay: native gel or EMSA; RXRα-LBD protein (2 mg/mL) incubated with DMSO, 10 μmol/L 9-cis-RA, 25 or 50 μmol/L N-6 for 3 h; 8% nondenaturing PAGE, Coomassie staining

Cc1cc2c(cc1-c1cc(/C=C/C(=O)O)ccc1O)C(C)(C)CCC2(C)C [CD3254]
mammalian one-hybrid reporter in MCF-7 cells (10^-7 mol/L) (RXRα [1]): CD3254 was able to stimulate the transactivation of the mutant

C/C(=N/O)c1sc(-n2nc(-c3ccccc3)cc2-c2ccccc2)nc1C [N-6, (NZ)-N-[1-[2-(3,5-diphenylpyrazol-1-yl)-4-methyl-1,3-thiazol-5-yl]ethylidene]droxylamine]
Kd (RXRα [2]): 1000 µM
mammalian one-hybrid reporter in MCF-7 cells, antagonism of CD3254 (N-6 at 10 μm) (RXRα [3]): CD3254-induced transactivation of RXRα-LBD/R316E was potently inhibited by N-6
Kd (RXRα [4]): 15.7 µM

B1: His-tagged human RXRα-LBD (223–462) (domain or fragment, UniProt P19793 223-462, looked up)
chain: TSSANEDMPVERILEAELAVEPKTETYVEANMGLNPSSPNDPVTNICQAADKQLFTLVEWAKRIPHFSELPLDDQVILLRAGWNELLIASFSHRSIAVKDGILLATGLHVHRNSAHSAGVGAIFDRVLTELVSKMRDMQMDKTELGCLRAIVLFNPDSKGLSNPAEVEALREKVYASLEAYCKHKYPEQPGRFAKLLLRLPALRSIGLKCLEHLFFFKLIGDTPIDTFLMEMLEAPHQMT
stoichiometry N [5]: 2
